According to PubChem BioAssay AID248 (DTP/NCI, 2004):
Toxic doses and inconclusive results are not listed. No stated cut-off is given here; in the data, active means T/C of 150% or more; inactive means T/C below 125%.

System: L1210 leukemia ip in BDF1 mice, survival T/C
Experiment: NCI In Vivo Anticancer Drug Screen. Data for tumor model L1210 Leukemia (intraperitoneal) in B6D2F1 (BDF1) mice
Conditions: endpoint: mean survival time, higher = longer survival
Outline: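 Ratio derived from survival: compound-dosed mice over vehicle-dosed mice, all bearing a transplantable tumor.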

[1] = dose: 100.0 mg/kg/injection, schedule: Q01DX001 (ip), vehicle: carboxymethylcellulose (CMC)
[2] = dose: 200.0 mg/kg/injection, schedule: Q01DX001 (ip), vehicle: carboxymethylcellulose (CMC)
[3] = dose: 400.0 mg/kg/injection, schedule: Q01DX001 (ip), vehicle: carboxymethylcellulose (CMC)
[4] = dose: 100.0 mg/kg/injection, schedule: Q01DX009 (ip), vehicle: Klucel (hydroxypropylcellulose) (HPC)
[5] = dose: 200.0 mg/kg/injection, schedule: Q01DX009 (ip), vehicle: Klucel (hydroxypropylcellulose) (HPC)
[6] = dose: 400.0 mg/kg/injection, schedule: Q01DX009 (ip), vehicle: Klucel (hydroxypropylcellulose) (HPC)
[7] = dose: 50.0 mg/kg/injection, schedule: Q01DX001 (ip), vehicle: saline
[8] = dose: 100.0 mg/kg/injection, schedule: Q01DX001 (ip), vehicle: saline
[9] = dose: 200.0 mg/kg/injection, schedule: Q01DX001 (ip), vehicle: saline
[10] = dose: 400.0 mg/kg/injection, schedule: Q01DX001 (ip), vehicle: saline
[11] = dose: 100.0 mg/kg/injection, schedule: Q01DX009 (ip), vehicle: saline with Tween-80
[12] = dose: 200.0 mg/kg/injection, schedule: Q01DX009 (ip), vehicle: saline with Tween-80
[13] = dose: 400.0 mg/kg/injection, schedule: Q01DX009 (ip), vehicle: saline with Tween-80
[14] = dose: 100.0 mg/kg/injection, schedule: Q01DX009 (ip), vehicle: saline
[15] = dose: 100.0 mg/kg/injection, schedule: Q04DX003 (ip), vehicle: saline
[16] = dose: 200.0 mg/kg/injection, schedule: Q04DX003 (ip), vehicle: saline
[17] = dose: 400.0 mg/kg/injection, schedule: Q04DX003 (ip), vehicle: saline

Measured: T/C

CC1(C)C/C(=C/c2ccc([N+](=O)[O-])cc2[N+](=O)[O-])C(=O)O1
inactive: dose: 50.0 mg/kg/injection, schedule: Q01DX001 (ip), vehicle: carboxymethylcellulose (CMC) 100 % of control | [1] 94 % of control | [2] 94 % of control | [3] 100 % of control

CSc1ccc(OC(=O)NC2CCCCC2)cc1
inactive: [4] 98 % of control | dose: 100.0 mg/kg/injection, schedule: Q04DX003 (ip), vehicle: Klucel (hydroxypropylcellulose) (HPC) 98 % of control | [5] 101 % of control | dose: 200.0 mg/kg/injection, schedule: Q04DX003 (ip), vehicle: Klucel (hydroxypropylcellulose) (HPC) 101 % of control | [6] 116 % of control | dose: 400.0 mg/kg/injection, schedule: Q04DX003 (ip), vehicle: Klucel (hydroxypropylcellulose) (HPC) 101 % of control

Nc1nc(N)c(-c2ccc(Cl)cc2)c(COc2cccc([N+](=O)[O-])c2)n1
inactive: dose: 75.0 mg/kg/injection, schedule: Q01DX001 (ip), vehicle: carboxymethylcellulose (CMC) 89 % of control | dose: 150.0 mg/kg/injection, schedule: Q01DX001 (ip), vehicle: carboxymethylcellulose (CMC) 92 % of control | dose: 300.0 mg/kg/injection, schedule: Q01DX001 (ip), vehicle: carboxymethylcellulose (CMC) 93 % of control

CN(C)c1cc2c(cc1[N+](=O)[O-])-c1ccccc1C2=O
inactive: dose: 100.0 mg/kg/injection, schedule: Q04DX003 (ip), vehicle: saline with Tween-80 100 % of control | dose: 200.0 mg/kg/injection, schedule: Q04DX003 (ip), vehicle: saline with Tween-80 100 % of control | dose: 400.0 mg/kg/injection, schedule: Q04DX003 (ip), vehicle: saline with Tween-80 100 % of control

CN/N=C/c1cc(=O)[nH]c(=O)[nH]1
inactive: [7] 101 % of control | [8] 104 % of control | [9] 95 % of control

CCOC(=O)Sc1ccccc1
inactive: dose: 100.0 mg/kg/injection, schedule: Q01DX001 (ip), vehicle: other 102 % of control | dose: 200.0 mg/kg/injection, schedule: Q01DX001 (ip), vehicle: other 94 % of control

Cn1c2c(c(=O)n(C)c1=O)C(C=O)C(=O)N2 (stereo not given)
inactive: dose: 100.0 mg/kg/injection, schedule: Q04DX002 (ip), vehicle: saline 101 % of control | dose: 200.0 mg/kg/injection, schedule: Q04DX002 (ip), vehicle: saline 87 % of control | dose: 400.0 mg/kg/injection, schedule: Q04DX002 (ip), vehicle: saline 90 % of control

CC(C)N(CCC#N)C(=S)Nc1cccc2ccccc12
inactive: [4] 93 % of control | [5] 87 % of control | [6] 102 % of control

COC1OC(COC(=O)c2ccc([N+](=O)[O-])cc2)C(N(C)C(C)=O)C1OC(=O)c1ccc([N+](=O)[O-])cc1 (stereo not given)
inactive: [1] 93 % of control | [2] 93 % of control | [3] 93 % of control

CCOC(=O)N\C(N)=N/N=C(C)\C=N\N=C(/N)NC(=O)OCC
inactive: dose: 15.0 mg/kg/injection, schedule: Q01DX Z (ip), vehicle: carboxymethylcellulose (CMC) 95 % of control | dose: 30.0 mg/kg/injection, schedule: Q01DX Z (ip), vehicle: carboxymethylcellulose (CMC) 101 % of control | dose: 60.0 mg/kg/injection, schedule: Q01DX Z (ip), vehicle: carboxymethylcellulose (CMC) 106 % of control | dose: 120.0 mg/kg/injection, schedule: Q01DX Z (ip), vehicle: carboxymethylcellulose (CMC) 97 % of control

CS(=O)(=O)OCCN(CCOS(C)(=O)=O)c1ccc([N+](=O)[O-])c(F)c1
inactive: [7] 110 % of control | [8] 112 % of control | [9] 115 % of control | [10] 105 % of control

O=C1c2cscc2C(=O)c2c(Cl)sc(Cl)c21
inactive: dose: 100.0 mg/kg/injection, schedule: Q04DX003 (ip), vehicle: acetone 102 % of control

CCC(C)(S(=O)(=O)CC)S(=O)(=O)CC
inactive: [11] 105 % of control | [12] 102 % of control | [13] 100 % of control

CCCC(CCCC(=O)O)C(=O)c1ccccc1 (stereo not given)
inactive: [11] 101 % of control | [12] 104 % of control | [13] 100 % of control

O=C1C[C@@H](c2ccc(O)cc2)[C@@]2(O1)C(=O)O[C@H]([C@@H](O)CO)[C@@H]2O
inactive: dose: 75.0 mg/kg/injection, schedule: Q01DX001 (ip), vehicle: saline 98 % of control | dose: 75.0 mg/kg/injection, schedule: Q01DX009 (ip), vehicle: saline 96 % of control | dose: 75.0 mg/kg/injection, schedule: Q04DX003 (ip), vehicle: saline 95 % of control | dose: 150.0 mg/kg/injection, schedule: Q01DX001 (ip), vehicle: saline 96 % of control | dose: 150.0 mg/kg/injection, schedule: Q01DX009 (ip), vehicle: saline 93 % of control | dose: 150.0 mg/kg/injection, schedule: Q04DX003 (ip), vehicle: saline 98 % of control | dose: 300.0 mg/kg/injection, schedule: Q01DX001 (ip), vehicle: saline 97 % of control | dose: 300.0 mg/kg/injection, schedule: Q01DX009 (ip), vehicle: saline 100 % of control | dose: 300.0 mg/kg/injection, schedule: Q04DX003 (ip), vehicle: saline 94 % of control

OCC1CCN1C(c1ccccc1)c1ccccc1 (stereo not given)
inactive: dose: 100.0 mg/kg/injection, schedule: Q04DX002 (ip), vehicle: saline with Tween-80 93 % of control | dose: 200.0 mg/kg/injection, schedule: Q04DX002 (ip), vehicle: saline with Tween-80 86 % of control

CC1(C)OC2C(C=O)OC(n3cnc4c(N)ncnc43)C2O1 (stereo not given)
inactive: dose: 100.0 mg/kg/injection, schedule: Q04DX003 (ip), vehicle: alcohol 102 % of control | dose: 200.0 mg/kg/injection, schedule: Q04DX003 (ip), vehicle: alcohol 102 % of control | dose: 400.0 mg/kg/injection, schedule: Q04DX003 (ip), vehicle: alcohol 96 % of control

Nc1ncnn1C(=S)NCc1ccccc1
inactive: [14] 100 % of control | [15] 89 % of control | [16] 90 % of control | [17] 88 % of control

CC(=O)Oc1ccc(OC(C)=O)c2c1CC(C)=C(C)C2
inactive: [14] 95 % of control | [15] 97 % of control | dose: 200.0 mg/kg/injection, schedule: Q01DX009 (ip), vehicle: saline 90 % of control | [16] 98 % of control | dose: 400.0 mg/kg/injection, schedule: Q01DX009 (ip), vehicle: saline 92 % of control | [17] 97 % of control

CC(c1ccccc1)n1cnc2c(=S)nc[nH]c21 (stereo not given)
inactive: [8] 92 % of control | [9] 95 % of control | [10] 103 % of control

O=C(Nc1ccccc1)C(=O)c1ccccc1
inactive: dose: 100.0 mg/kg/injection, schedule: Q01DX001 (ip), vehicle: Klucel (hydroxypropylcellulose) (HPC) 98 % of control | dose: 200.0 mg/kg/injection, schedule: Q01DX001 (ip), vehicle: Klucel (hydroxypropylcellulose) (HPC) 93 % of control | dose: 400.0 mg/kg/injection, schedule: Q01DX001 (ip), vehicle: Klucel (hydroxypropylcellulose) (HPC) 106 % of control
